From article PMC5652740, “Inhibition of HIV-1 infection in humanized mice and metabolic stability of protein phosphatase-1-targeting small molecule 1E7-03” (Oncotarget, 2017)
Values joined by “and” are separate entries in the source; they are usually repeats but may differ in a detail not shown here. Equal entries are not always repeated.

How the values were obtained:
CEM T cells = experiment: Cellular permeability assay by LC/FT-MS; format: in vitro ADME; settings: 10 μM, 24 hrs; for CEM T cell permeability, % of Total, Cells: accumulation in cell lysate
Procedure: CEM T cells were seeded in 6-well plates (0.5 × 10^6 cells/ml) and treated by 10 μM of the indicated compounds. Two samples were generated for each compound (in triplicates) obtained from cellular lysate and media sample. Cell culture media samples (100 μl) were collected from each well after 24 hrs of incubation and total protein was precipitated by the addition of 400 μl cold acetone. […] To obtain cell lysates, the cells were suspended in 300 μl cold whole cell lysis buffer (50 mM Tris-HCl, pH 7.5, 0.5 M NaCl, 1% NP-40, 0.1% SDS) and sonicated. A 100 μl aliquot of the cell lysate was combined with 400 μl cold acetone to precipitate proteins. All samples were centrifuged at 13,000 × g for 5 min. Supernatants containing compounds and their metabolites were collected and evaporated to dryness on SpeedVac concentrator. The dry pellet was reconstituted in 50 μl acetonitrile for LC/FT-MS analysis.

[1] = Stability in mouse liver microsomes; format: in vitro ADME; settings: 10 μM 1E7-03, 37°C, 1 hr; 1E7-03 remaining and DP1, DP3 formed
Procedure: The metabolic stability of 1E7-03 was also investigated using a pool of human and mouse liver microsomes (HMS9PL, MSS9PL, Thermo Scientific) following manufacturer's instructions. In brief, incubations were conducted at 37 ± 1°C in mixtures containing 5 μl of human or mouse liver microsomes (20 mg/ml), 183 μl of potassium phosphate buffer (pH 7.4, 100 mM) and 2 μl of 1E7-03 (10 mM sock solution of 1E7-03 in DMSO was diluted into 1 mM by PBS). The mixture was pre-incubated for 5 min, then initiated the reactions with the addition of 10 μl 20 mM NADPH (Sigma Aldrich). The reactions were terminated after 1 hr incubation by adding 800 μl cold acetone. The mixture was kept at 4°C for 30 min, and the precipitated protein was removed by centrifugation (13, 000 g for 10 min at 4°C). A 250 μl aliquot of supernatant was transferred to a clean test tube and evaporated to dryness using a SpeedVac concentrator. The residue was reconstituted in 50 μl of acetonitrile with 0.1% FA for LC/FT-MS analysis.

HIV-1 89.6 = experiment: Antiviral efficacy in HIV-1 89.6-infected humanized NSG mice; format: in vivo; settings: 48 hrs
Procedure: NOD.Cg-Prkdcscid Il2rgtm1Wjl/SzJ (NSG) mice initially purchased from Jackson Laboratories were bred and maintained in the Animal Core Facility at George Mason University (Manassas, VA). NSG mice were generated by i.p. injection of cryopreserved human CD34+ hematopoietic stem progenitor cells (HSPC) (500,000 cells per mouse) isolated from the autologous fetal liver. Anesthetized mice were inoculated by direct injection 16 weeks after implantation with 50 μl of HIV-1 89.6 (1,000 TCID50) or RPMI 1640 medium (mock infection). […] Blood was collected by tail vein after 48 hrs and transferred into microcentrifuge tubes containing 330 mM EDTA. Each data point represents the blood from a single animal. Plasma was removed after low-speed centrifugation for 5 min at room temperature and stored at -80°C. Viral RNA was extracted from plasma using the QIAamp Viral RNA Mini Kit (Qiagen). For quantitative analysis of HIV-1 RNA, total RNA was isolated from blood specimens of HIV-1-infected humanized mice. RNA was isolated using Trizol Reagent (Invitrogen, Carlsbad, CA) according to the manufacturer's protocol. A total of 1.0 μg of RNA was treated with 0.25 mg/ml DNase I RNase-free (Roche, Mannheim, Germany) for 60 min in the presence of 5 mM MgCl2, followed by heat inactivation at 65 °C for 15 min. A 200–250 ng aliquot of total RNA was used to generate cDNA with the GoScript Reverse Transcription System (Promega, Madison, WI) using TAR-specific reverse primer TAR+59R: 5′- […] -3′. Subsequent quantitative real-time PCR analysis was performed with 2 μl of undiluted RT reaction mixes. The iQ Supermix (Bio-Rad, Hercules, CA) was used with the primers specific for (1) HIV-1 TAR: TARfll-F: 5′-[…]-3′ and TAR+59R as above; (2) HIV-1 TAR-gag: Gag 1625R: 5’- […] -3’ and TAR+59R as above. Real-time PCR reactions were carried out in triplicate.

HIV-1 env and gag mRNA = HIV-1 env and gag mRNA expression by real-time RT-PCR in infected CEM T cells; format: cell-based; settings: 10 μM 1E7-03, DP1, DP3; 5 μM AZT, 3TC; in words
Procedure: For quantitative analysis of HIV-1 RNA, CEM T cells were infected with HIV-1-LUC-G virus. Cells were treated with 10 μM 1E7-03, 10 μM DP1, 10 μM DP3, 5 μM AZT or 5 μM 3TC and control cells were untreated or treated with DMSO. Total RNA was isolated using Trizol Reagent (Invitrogen, Carlsbad, CA) according to the manufacturer's protocol. Total RNA (100 ng) was reverse transcribed to cDNA using Superscript™ RT-PCR kit (Invitrogen, Carlsbad, CA). Hexamers and oligo-dT were used as primers. For real-time PCR analysis, cDNA was amplified using Roche LightCycler 480 (Roche Diagnostics) and SYBR Green1 Master mix (Roche Diagnostics). PCR was run for 45 cycles and each cycle included denaturation at 95°C for 10 seconds, annealing at 60°C for 10 seconds, and extension at 72°C for 10 seconds. Quantification of env and gag was carried using 18S RNA as a normalization standard. Quantification of housekeeping genes, β-actin and RSP13 was carried relative to 18S RNA. Mean Cp values were determined and ΔΔCt method was used to calculate relative expression levels. Unpaired t-test was used to test statistical significance.
The following primer sequences were used: env, forward - […], reverse-[…]; gag, forward- […], reverse- […]; β-actin, forward- […], reverse-[…]; RSP13, forward- […], reverse- […]; and 18SrRNA, forward- […], reverse- […].

[2] = molecular target: T1, QuantiLum Recombinant Luciferase (Photinus pyralis, UniProt P08659); experiment: Purified luciferase inhibition in vitro; format: biochemical; settings: for effect on luciferase activity in vitro: in words, 1E7-03 at concentrations below 100 μM; for IC50: purified luciferase, room temperature, 10 min
T1 construct: purchased
T1 sequence (P08659 whole entry): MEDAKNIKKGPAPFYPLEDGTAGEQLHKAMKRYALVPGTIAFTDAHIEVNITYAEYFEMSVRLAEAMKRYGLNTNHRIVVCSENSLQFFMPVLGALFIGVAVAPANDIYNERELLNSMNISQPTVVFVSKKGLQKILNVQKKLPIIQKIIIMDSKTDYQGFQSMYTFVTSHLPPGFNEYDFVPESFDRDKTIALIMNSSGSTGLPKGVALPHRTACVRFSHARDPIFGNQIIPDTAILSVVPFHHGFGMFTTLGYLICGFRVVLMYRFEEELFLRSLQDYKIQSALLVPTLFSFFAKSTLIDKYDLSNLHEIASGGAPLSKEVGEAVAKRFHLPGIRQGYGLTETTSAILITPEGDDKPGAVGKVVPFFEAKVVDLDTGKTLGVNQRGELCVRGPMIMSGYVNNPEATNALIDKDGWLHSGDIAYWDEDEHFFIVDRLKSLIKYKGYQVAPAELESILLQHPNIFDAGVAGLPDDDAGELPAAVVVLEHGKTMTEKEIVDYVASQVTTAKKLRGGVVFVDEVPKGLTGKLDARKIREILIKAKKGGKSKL
Procedure: QuantiLum Recombinant Luciferase (20 ng/ml in PBS) was added into 96-well plate (100 μl/well) and incubated with serial dilutions of the compounds or vehicle (DMSO) under room temperature for 10 min. 100 μl of reconstituted luciferase buffer (Luclite Kit, Perkin Elmer) was added to each well, incubated for another 10 min and luminescence was measured using Glo-Max Microplate Multimode reader (Promega).

SMILES	CEM T cell permeability, % of Total, Cells (CEM T cells; 37°C)	% of Total (Liver microsomes, Mouse) [1]	fold reduction of HIV TAR RNA (HIV-1 89.6; single i.p. dose, 1E7-03 3 mg/kg, F07#13 […], vs untreated mice, Figure 6A) [fold]	fold reduction of HIV TAR-gag RNA (HIV-1 89.6; single i.p. dose, 1E7-03 3 mg/kg, F07#13 […], vs untreated mice, Figure 6B) [fold]	HIV-1 env mRNA expression (HIV-1 env and gag mRNA)	HIV-1 gag mRNA expression (HIV-1 env and gag mRNA)	effect on luciferase activity in vitro [2]	IC50 [2] [µM]	CEM T cell permeability, % of Total, Media (CEM T cells; 37°C, amount in media) [%]	fold reduction of HIV TAR RNA (HIV-1 89.6; single i.p. dose 3 mg/kg, Figure 7G) [fold]	times less efficient cellular accumulation than 1E7-03 (CEM T cells; CEM T cells)
CCNC(=O)NC(=O)C(C)OC(=O)c1c2c(nc3ccccc13)/C(=C/c1ccc(OC)c(OC)c1)CC2 (stereo not drawn) [1E7-03]	3%	91% and 90.61%	> 40	> 39	significantly reduced	significantly reduced	no effect	> 180			
COc1ccc(/C=C2\CCCc3c2nc2ccccc2c3C(=O)OC(C)C(=O)OC(C)(C)C)cc1OC (stereo not drawn) [DP1-07]	2.7% and 2.73%						did not inhibit		97.27	3.8	
COc1ccc(/C=C2\CCc3c2nc2ccccc2c3C(=O)OC(C)C(=O)O)cc1OC (stereo not drawn) [DP1]		8.36%			not affected	not affected		37			more than 10 times
COc1ccc(/C=C2\CCc3c2nc2ccccc2c3C(=O)O)cc1OC [DP3]		1.03%			not affected	not affected		7.2			
